According to patent US20260109732A1, “LIPID AMINES” (ModernaTX, Inc., priority 2021, published 2026):
Structures can show the parent of a compound that is named as a salt.

Assays:
[1] = Diameter and PDI from DLS measurements of mRNA nanoparticles with lipid amines; assay type: physicochemical
Outline: (§1)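 DLS gave size and PDI, and Ribogreen gave encapsulation, for luciferase- or CFTR-mRNA nanoparticles (N:P 4.93). Particles came from IL1/DSPC/cholesterol/PEG-DMG-2K mixed at pH 4, mRNA-loaded, neutralized with TRIS pH 8.12, and then treated with lipid amine SA50 in pH 7.5 buffer.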

[2] = Encapsulation of mRNA nanoparticles with lipid amines using Ribogreen assay; assay type: physicochemical
Outline: as §1

[3] = test system: HeLa cells; test: Luciferase Protein Expression Assay in HeLa Cells; assay type: cell-based, Human; conditions: LNPs encapsulating Luciferase mRNA, 25 ng per well, N=4 wells; 5 h serum-free then 24 h; ONE-Glo
Outline: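 Luminescence output, average RLU across N=4 wells, was measured with ONE-Glo after cell lysis. Before that, HeLa cells were exposed to 25 ng/well luciferase-mRNA nanoparticles (PBS control) for 5 h serum-free, then cultured overnight (24 h) in complete MEM.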

[4] = test system: HeLa cells; test: CFTR Protein Expression Assay in HeLa Cells; assay type: cell-based, Human; conditions: LNPs encapsulating CFTR mRNA, N=4 wells; 5 h serum-free then 24 h; immunofluorescence vs PBS control
Outline: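 Readout is fold-change in per-cell CFTR immunofluorescence intensity (488 nm, confocal imaging) relative to PBS-treated cells, from 4 replicate wells. LNPs encapsulating CFTR mRNA were applied serum-free for 5 h, followed by 24 h in complete medium before PFA fixation.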

[5] = CFTR mRNA nanoparticle with lipid amine
[6] = Luciferase mRNA nanoparticle modified with lipid amine

SMILES	Diameter (nm) [1, 5] [nm]	PDI [1, 5]	Diameter (nm) [1, 6] [nm]	PDI [1, 6]	% Encapsulation (Ribogreen) [2, 5] [%]	% Encapsulation (Ribogreen) [2, 6] [%]	Average Relative Light Units ± Standard Deviation [3] [Relative Light Units]	Average fold-change in CFTR signal intensity per cell compared to buffer control ± standard deviation [4] [fold-change]
CC(C)CCC[C@@H](C)[C@H]1CC[C@H]2[C@@H]3CC=C4C[C@@H](OC(=O)N(CCCN)CCCCCCN)CC[C@]4(C)[C@H]3CC[C@]12C [SA83, (3S,8S,9S,10R,13R,14S,17R)-10,13-Dimethyl-17-((R)-6-methylheptan-2-yl)-2,3,4,7,8,9,10,11,12,13,14,15,16,17-tetradecahydro-1H-cyclopenta[a]phenanthren-3-yl (6-aminohexyl)(3-aminopropyl)carbamate dihydrochloride]	82.3	0.15	75	0.14	99.8	99.3	35394.8 ± 5033.2	4.8 ± 0.3
CC[C@H](CC[C@@H](C)[C@H]1CC[C@H]2[C@@H]3CC=C4C[C@@H](OC(=O)N(CCCN)CCCCCCN)CC[C@]4(C)[C@H]3CC[C@]12C)C(C)C [SA84, (3S,8S,9S,10R,13R,14S,17R)-17-((2R,5R)-5-Ethyl-6-methylheptan-2-yl)-10,13-dimethyl-2,3,4,7,8,9,10,11,12,13,14,15,16,17-tetradecahydro-1H-cyclopenta[a]phenanthren-3-yl (6-aminohexyl)(3-aminopropyl)carbamate dihydrochloride]	82	0.13	74	0.16	99.5	99.9	29639.9 ± 7554	5.0 ± 0.2
CC(C)CCC[C@@H](C)[C@H]1CC[C@H]2[C@@H]3CC=C4C[C@@H](OC(=O)N(CCCCNCC(F)CN)CC(F)CN)CC[C@]4(C)[C@H]3CC[C@]12C (stereo partly drawn) [SA87, (3S,8S,9S,10R,13R,14S,17R)-10,13-dimethyl-17-((R)-6-methylheptan-2-yl)-2,3,4,7,8,9,10,11,12,13,14,15,16,17-tetradecahydro-1H-cyclopenta[a]phenanthren-3-yl (3-amino-2-fluoropropyl)(4-((3-amino-2-fluoropropyl)amino)butyl)carbamate trihydrochloride]	81.2	0.1	75	0.18	99.5	98.2	13346.1 ± 2590.8	3.2 ± 0.1
CC(C)CCC[C@@H](C)[C@H]1CC[C@H]2[C@@H]3CC=C4C[C@@H](OC(=O)N(CCCCNCC(O)CN)CC(O)CN)CC[C@]4(C)[C@H]3CC[C@]12C (stereo partly drawn) [SA88, (3S,8S,9S,10R,13R,14S,17R)-10,13-dimethyl-17-((R)-6-methylheptan-2-yl)-2,3,4,7,8,9,10,11,12,13,14,15,16,17-tetradecahydro-1H-cyclopenta[a]phenanthren-3-yl (3-amino-2-hydroxypropyl)(4-((3-amino-2-hydroxypropyl)amino)butyl)carbamate trihydrochloride]	89.4	0.19	75	0.13	99.1	99.8	17105.3 ± 7097.3	4.5 ± 0.2
CC(C)CCC[C@@H](C)[C@H]1CC[C@H]2[C@@H]3CC=C4C[C@@H](OC(=O)CCCCC(=O)N(CCCN)CCCCNCCCN)CC[C@]4(C)[C@H]3CC[C@]12C [SA89, (3S,8S,9S,10R,13R,14S,17R)-10,13-dimethyl-17-((R)-6-methylheptan-2-yl)-2,3,4,7,8,9,10,11,12,13,14,15,16,17-tetradecahydro-1H-cyclopenta[a]phenanthren-3-yl 6-((3-aminopropyl)(4-((3-aminopropyl)amino)butyl)amino)-6-oxohexanoate trihydrochloride]	86.5	0.15	77	0.16	98.6	99.7	8209.2 ± 4138.5	3.7 ± 0.4
CC[C@H](CC[C@@H](C)[C@H]1CC[C@H]2[C@@H]3CC=C4C[C@@H](OC(=O)CCCCC(=O)N(CCCN)CCCCNCCCN)CC[C@]4(C)[C@H]3CC[C@]12C)C(C)C [SA90, (3S,8S,9S,10R,13R,14S,17R)-17-((2R,5R)-5-ethyl-6-methylheptan-2-yl)-10,13-dimethyl-2,3,4,7,8,9,10,11,12,13,14,15,16,17-tetradecahydro-1H-cyclopenta[a]phenanthren-3-yl 6-((3-aminopropyl)(4-((3-aminopropyl)amino)butyl)amino)-6-oxohexanoate trihydrochloride]	84.6	0.14	76	0.19	98.1	99.6	9337.4 ± 3055.2	4.2 ± 0.4
CC(C)CCC[C@@H](C)[C@H]1CC[C@H]2[C@@H]3CC=C4C[C@@H](OC(=O)N(CCCN)CCCCCCCCCCN)CC[C@]4(C)[C@H]3CC[C@]12C [SA95, (3S,8S,9S,10R,13R,14S,17R)-10,13-Dimethyl-17-((R)-6-methylheptan-2-yl)-2,3,4,7,8,9,10,11,12,13,14,15,16,17-tetradecahydro-1H-cyclopenta[a]phenanthren-3-yl (10-aminodecyl)(3-aminopropyl)carbamate dihydrochloride]	83.6	0.14	75	0.20	99.3	99.7	22952.2 ± 5937.7	4.2 ± 0.8
CC[C@H](CC[C@@H](C)[C@H]1CC[C@H]2[C@@H]3CC=C4C[C@@H](OC(=O)N(CCCN)CCCCCCCCCCN)CC[C@]4(C)[C@H]3CC[C@]12C)C(C)C [SA96, (3S,8S,9S,10R,13R,14S,17R)-17-((2R,5R)-5-Ethyl-6-methylheptan-2-yl)-10,13-dimethyl-2,3,4,7,8,9,10,11,12,13,14,15,16,17-tetradecahydro-1H-cyclopenta[a]phenanthren-3-yl (10-aminodecyl)(3-aminopropyl)carbamate dihydrochloride]	82.3	0.12	71	0.15	98.9	99.6	17172.8 ± 2176	5.2 ± 0.7
CC(C)CCC[C@@H](C)[C@H]1CC[C@H]2[C@@H]3CC=C4C[C@@H](SSCCC(=O)N(CCCN)CCCCCCCCN)CC[C@]4(C)[C@H]3CC[C@]12C [SA97, N-(8-Aminooctyl)-N-(3-aminopropyl)-3-(((3S,8S,9S,10R,13R,14S,17R)-10,13-dimethyl-17-((R)-6-methylheptan-2-yl)-2,3,4,7,8,9,10,11,12,13,14,15,16,17-tetradecahydro-1H-cyclopenta[a]phenanthren-3-yl)disulfaneyl)propanamide dihydrochloride]	83.2	0.12	72	0.16	98.4	98.8	13144.4 ± 4350.5	5.3 ± 1.0
CC(C)CCC[C@@H](C)[C@H]1CC[C@H]2[C@@H]3CC=C4C[C@@H](OC(=O)CSSCC(=O)N(CCCN)CCCCNCCCN)CC[C@]4(C)[C@H]3CC[C@]12C [SA98, (3S,8S,9S,10R,13R,14S,17R)-10,13-dimethyl-17-((R)-6-methylheptan-2-yl)-2,3,4,7,8,9,10,11,12,13,14,15,16,17-tetradecahydro-1H-cyclopenta[a]phenanthren-3-yl 2-((2-((3-aminopropyl)(4-((3-aminopropyl)amino)butyl)amino)-2-oxoethyl)disulfaneyl)acetate trihydrochloride]	82.8	0.14	70	0.15	93	97.0	80.7 ± 36.7	1.0 ± 0
